US7449560B2, “Phosophoinositoglycan binding proteins” (Sanofi-Aventis Deutschland GmbH, priority 2002, dated 2008)

Tests used:
[1] = system: CIR (115 kDa polypeptide); test: [14C]NEM-labeling and trypsin/NaCl release of CIR from rat adipocytes; format: cell-based; settings: adipocytes treated before labeling
Protocol: For trypsin/NaCl-treatment, 2 ml of adipocyte suspension (3.5×10^6 cells/ml) in KRH containing 5 mM glucose was incubated (20 min, 30° C.) in the presence of 100 μg/ml trypsin. Soy bean trypsin inhibitor (final conc. 100 μg/ml) and 2 ml of KRH containing 1 M NaCl and 0.5% BSA were added and the incubation (10 min, 22° C.) continued. For NEM-treatment, 1 ml of adipocyte suspension (3.5×10^6 cells/ml) in KRH containing 5 mM glucose was incubated (30 min, 25° C.) with NEM (1.5 mM final conc.) and then with DTT (15 mM final conc., 5 min). After the treatments, the cells were centrifuged (1500×g, 5 min, swing-out rotor) and the infranatant removed by suction. The cell suspension left (about 0.5 ml) was supplemented with 10 ml of KRH containing 0.5% BSA and then centrifuged again (500×g, 1 min, swing-out rotor). […] Proteins of the medium contained in the lower part of the tubes were precipitated (10% TCA, two acetone washes), suspended in Laemmli sample buffer and analyzed by SDS-PAGE. […]
Phosphorimages are shown from a typical experiment repeated three times with similar results. Quantitative evaluation of four different adipocyte incubations with triplicate measurements given as arbitrary units (mean±SD) with the amount of CIR released from trypsin/NaCl-treated control cells set at 100.

[2] = system: IcGce1p binding site at hcDIGs; test: Competition of synthetic PIG(-P) with radiolabeled IcGce1p binding to hcDIGs; design: species or system rat
Protocol: (§1) 10 μl, of radiolabeled YCN-PIG or IcGce1p (60,000-80,000 dpm/nmol, final conc. 5 μM) was added to 40 μl of suspended plasma membranes, microsomes or hc/IcDIGs (40-80 μg of protein) in binding buffer in the absence or presence of unlabeled competitor (as indicated in the figure legends) in a total volume of 100 μl and incubated (30 min, 4° C.). […] After rigorous shaking (16 h, 25° C.), the radioactivity was counted in 9 ml of ACSII scintillation cocktail (Beckman). Under these conditions, sticking to the tube walls and partitioning into the oil layer of both radiolabeled YCN-PIG and IcGce1p accounted for 50-120 dpm (i.e. less than 0.5% of total radioactivity used per incubation) and therefore was not considered for calculation of binding data. […]
Radiolabeled Gce1p prepared from S. cerevisiae and treated with PI-specific PLC (B. cereus) was incubated (1 h, 4° C.) with hcDIGs (6.5 μg protein) isolated from untreated rat adipocytes in the absence or presence of unlabeled PIG-P. hcDIGs were subjected to oil-layer-centrifugation, solubilized and counted for radioactivity. […]

[3] = system: PIG(-P) receptor at hcDIGs; test: Competition of unlabeled PIG(-P) with radiolabeled YCN-PIG binding to hcDIGs; design: species or system rat; settings: for Binding affinity: hcDIGs of rat adipocytes; for efficacy in the competition assay (displacement of radiolabeled YCN-PIG from hcDIGs): unlabeled competitor
Protocol: (§2) 10 μl, of radiolabeled YCN-PIG or IcGce1p (60,000-80,000 dpm/nmol, final conc. 5 μM) was added to 40 μl of suspended plasma membranes, microsomes or hc/IcDIGs (40-80 μg of protein) in binding buffer in the absence or presence of unlabeled competitor (as indicated in the figure legends) in a total volume of 100 μl and incubated (30 min, 4° C.). For separation of membranes from the incubation medium, 45 μl aliquots were carefully layered over 200 μl, oil layers consisting of dibutyl phthalate and dioctyl phthalate (1/1 by vol., final density 1.012) in case of plasma membranes/microsomes or dibutyl phthalate and dinonyl phthalate (1/9 by vol., final density […]) in case of hc/IcDIGs in 0.4 ml precooled (4° C.) centrifugation tubes (microtubes no. 72.700, Sarstedt, Germany). […] After rigorous shaking (16 h, 25° C.), the radioactivity was counted in 9 ml of ACSII scintillation cocktail (Beckman). Under these conditions, sticking to the tube walls and partitioning into the oil layer of both radiolabeled YCN-PIG and IcGce1p accounted for 50-120 dpm (i.e. less than 0.5% of total radioactivity used per incubation) and therefore was not considered for calculation of binding data. Typical recoveries of plasma membranes and microsomes were 78-85% and 65-80%, respectively, and of hcDIGs and IcDIGs 83-92% and 70-78%, respectively, according to protein determination.
Radiolabeled YCN−PIG (18,000-22,000 dpm) was incubated (1 h, 4° C.) with hcDIGs (6.5 μg protein) in the absence or presence of increasing amounts of unlabeled YCN-PIG, YCN+PIG37, YMN-PIG, PIG37 and YCN (Competition). The membrane fractions/DIGs were subjected to oil-layer-centrifugation, recovered with/from the pellet/top of the oil layer, solubilized and counted for radioactivity.

[4] = system: IcDIGs; test: Binding of radiolabeled YCN-PIG to IcDIGs; design: species or system rat; settings: control adipocytes (no m-βCD)
Protocol: as §1
Radiolabeled YCN-PIG (12,000-18,000 dpm) was incubated (1 h, 4° C.) with the (proportional) amounts of hcDIGs and IcDIGs prepared from isolated rat adipocytes which had been pretreated (50 min, 30° C.) with increasing concentrations of m-βCD or left untreated. DIGs were subjected to oil-layer-centrifugation, recovered from top of the oil layer, solubilized and counted for radioactivity measured in the absence and presence of 10 μM unlabeled YCN-PIG. […]

[5] = system: PIG(-P) receptor at hcDIGs; test: Binding of radiolabeled YCN-PIG to hcDIGs (oil-layer centrifugation, Scatchard plot); design: species or system rat
Protocol: as §2, with “determination. […]” for “determination.”
Increasing amounts of radiolabeled YCN−PIG isolated from S. cerevisiae were incubated (1 h, 4° C.) with hcDIGs (6.5 μg protein), IcDIGs (6.5 μg), plasma membranes (47.5 μg) and microsomes (68 μg) from isolated rat adipocytes. The membrane fractions/DIGs were subjected to oil-layer-centrifugation, recovered with/from the pellet/top of the oil layer, solubilized and counted for radioactivity. Specific binding was calculated as the difference between radioactivity measured in the absence and presence of 10 μM unlabeled YCN−PIG. […]

| Substance | stimulation of trypsin/NaCl-dependent release of [14C]NEM-labeled CIR [1] [%] | Competition of IcGce1p binding [2] | Binding affinity [3] | efficacy in the competition assay (displacement of radiolabeled YCN-PIG from hcDIGs) [3] | YCN-PIG left associated with IcDIGs [4] [%] | Bmax ([5]; Scatchard plot analysis, radiolabeled YCN-PIG) | Bmax higher vs untreated ([5]; hcDIGs from PI-specific PLC-pretreated adipocytes, Scatchard) [fold] | increase in binding of YCN-PIG to hcDIGs ([5]; hcDIGs from adipocytes pretreated with GPI-specific PL (PI-specific PLC / GPI-specific PLD)) [%] |
| --- | --- | --- | --- | --- | --- | --- | --- | --- |
| insulin: human insulin | 20 |  |  |  |  |  |  |  |
| HO—PO(H)O-6Manα1 (Manα1-2)-2-Manα1-6Manα1-4GluN1-6Ino-1,2-(cyclic)-phosphate [PIG37] |  | considerably less efficient | intermediate | significantly reduced efficacy |  |  |  |  |
| Tyr-Cys-Asn-NH—(CH2)2—OH [YCN] |  | considerably less efficient | low | very low activity |  |  |  |  |
| Tyr-Cys-Asn-NH—(CH2)2—O—PO(OH)O-6Manα1-2)2Manα1-6Manα1-4GluN1-6Ino-1,2-(cyclic)-phosphate [YCN-PIG, phosphoinositolglycan-peptide derived from yeast Gce1p GPI anchor; also chemically synthesized] |  |  | highest |  | 20 | 50-200 pmol per mg protein of hcDIGs | 2 to 3 | 200 |
